Reference: patent US20140228287A1, “1-[(3-CYANO-PYRIDIN-2-YL)METHYL]-3-METHYL-7-(2-BUTYN-1-YL)-8-[3-(R)-AMINO-PIPERIDIN-1-YL]-AXANTHINE FOR THE TREATMENT OF A METABOLIC DISORDER OF A PREDOMINANTLY CARNIVOROUS NON-HUMAN ANIMAL” (BOEHRINGER INGELHEIM VETMEDICA GMBH, priority 2010, published 2014)
Counter-ions that a name gives are not always drawn. Like-named read-outs stand apart in the source and are kept apart here.

Key:
thrombin = thrombin (Homo sapiens, UniProt P00734); experiment: In vitro selectivity, human proteases: thrombin; format: biochemical; details: up to 100 μM
Text: (§1) In order to determine the in vitro selectivity of 1-[(3-cyano-pyridin-2-yl)methyl]-3-methyl-7-(2-butyn-1-yl)-8-[3-(R)-amino-piperidin-1-yl]-xanthine, the ability of this compound to inhibit a number of human proteases was investigated as described in Thomas et al. (2008), J. Pharmacol. Exp. Ther., vol. 325, p. 175-182, chapter In vitro DPP-4 Inhibition Assay, p. 176.

alanine-amino-peptidase = alanine-amino-peptidase (Homo sapiens, UniProt P15144); experiment: In vitro selectivity, human proteases: alanine-amino-peptidase; format: biochemical; details: up to 100 μM
Text: as §1

amino-peptidase P = experiment: In vitro selectivity, human proteases: amino-peptidase P; format: biochemical; details: up to 100 μM
Text: as §1

DPP 8 = DPP 8 (Homo sapiens, UniProt Q6V1X1); experiment: In vitro selectivity, human proteases: DPP 8; format: biochemical
Text: as §1

plasma DPP IV [1] = target: T1, plasma DPP IV (Rattus norvegicus, UniProt P14740); experiment: Plasma DPP IV activity after oral administration, rat; format: in vivo; details: for inhibition at 1 mg/kg: 1 mg/kg oral; for ED50: oral, read-out: ED50 for inhibition of plasma DPP IV activity
T1 construct: from tissue
Procedure: (§2) The effect of 1-[(3-cyano-pyridin-2-yl)methyl]-3-methyl-7-(2-butyn-1-yl)-8-[3-(R)-amino-piperidin-1-yl]-xanthine on plasma DPP IV activity after oral administration was investigated in the rat, the Beagle dog and the Rhesus monkey. These investigations were conducted as described in the following.
Male HanWistar rats (Crl:WI(Han)) were obtained from Charles River (Germany). Animals were fed ad libitum with a standard pelleted diet (Diet No. 3438, Provimi Kliba, Switzerland) and had free access to water. Animals were housed in groups with a 12 h/12 h light/dark cycle (lights out between 6 p.m. and 6 a.m.). The rats were used for the experiment at a body weight of about 260 g. Such freely fed male HanWistar rats (n=5 per group) were administered oral doses of vehicle or 1-[(3-cyano-pyridin-2-yl)methyl]-3-methyl-7-(2-butyn-1-yl)-8-[3-(R)-amino-piperidin-1-yl]-xanthine monohydrochloride at 0.1, 0.3, 1, and 3 mg/kg body weight. Blood samples were drawn from the retrobulbal venous plexus under isoflurane anaesthesia. Blood was collected in EDTA tubes prior to administration of vehicle or 1-[(3-cyano-pyridin-2-yl)methyl]-3-methyl-7-(2-butyn-1-yl)-8-[3-(R)-amino-piperidin-1-yl]-xanthine monohydrochloride and subsequently at 0.5, 1, 2, 3, 4, 7, and 24 hour time points post dose. Plasma was prepared following blood collection and frozen for determination of DPP-IV activity.

plasma DPP IV [2] = experiment: Plasma DPP IV activity after oral administration, Beagle dog; format: in vivo; details: 3 mg/kg oral, 24 hours post dose
Procedure: as §2
Overnight fasted male Beagle dogs (n=4 per group) were administered oral doses of 1-[(3-cyano-pyridin-2-yl)methyl]-3-methyl-7-(2-butyn-1-yl)-8-[3-(R)-amino-piperidin-1-yl]-xanthine monohydrochloride at 3 and 12 mg/kg body weight. Blood samples were drawn from a butterfly inserted in either the right or left forearm vein. Blood was collected in EDTA tubes prior to administration of 1-[(3-cyano-pyridin-2-yl)methyl]-3-methyl-7-(2-butyn-1-yl)-8-[3-(R)-amino-piperidin-1-yl]-xanthine monohydrochloride and subsequently at 1, 2, 4, 8, and 24 hour time points post dose. Plasma was prepared following blood collection and frozen for determination of DPP-IV activity.

plasma DPP IV [3] = experiment: Plasma DPP IV activity after oral administration, Rhesus monkey; format: in vivo; details: 1 mg/kg oral, 24 hours post dose
Procedure: as §2
Overnight fasted Rhesus monkeys (n=4; 2 males and 2 females) were administered oral doses of 1-[(3-cyano-pyridin-2-yl)methyl]-3-methyl-7-(2-butyn-1-yl)-8-[3-(R)-amino-piperidin-1-yl]-xanthine monohydrochloride at 1 mg/kg bw. Blood samples were drawn from a butterfly that was inserted into a forearm vein of restrained monkeys. Blood was collected in EDTA tubes prior to administration of 1-[(3-cyano-pyridin-2-yl)methyl]-3-methyl-7-(2-butyn-1-yl)-8-[3-(R)-amino-piperidin-1-yl]-xanthine monohydrochloride and subsequently at 0.5, 1, 2, 4, 8, 24, 48, and 72 hour time points post dose. Plasma was prepared following blood collection and frozen for determination of DPP-IV activity.

DPP IV [4] = target: T2, DPP IV (Felis catus, UniProt Q9N2I7); experiment: 60-Day tolerability study of tablets in cats: relative DPP IV activity; format: in vivo, cat; details: percent of day 2 predose
T2 construct: Blood samples for the determination of this compound and DPP IV activity were collected; from tissue; host or cells: plasma of domestic short hair / purpose-bred cats dosed orally
Procedure: This study was conducted in order to examine the long-term tolerability of a pharmaceutical composition comprising 1-[(3-cyano-pyridin-2-yl)methyl]-3-methyl-7-(2-butyn-1-yl)-8-[3-(R)-amino-piperidin-1-yl]-xanthine monohydrochloride in cats after repeated oral administration for 60-days.
For this purpose, the compound according to the invention has been admixed with standard ingredients to a scored, oblong, brown tablet, size 10×5.5 mm, comprising 1-[(3-cyano-pyridin-2-yl)methyl]-3-methyl-7-(2-butyn-1-yl)-8-[3-(R)-amino-piperidin-1-yl]-xanthine monohydrochloride at 21.68 mg of the chloride per tablet (which equals 20 mg of the free base) and 10% meat flavour.
20 male healthy non-obese cats (Domestic short hair feline) supplied by Liberty Research, Inc., Waverly, N.Y., USA, of an age of 13 to 20 months were used. After an adaptation period of 4 weeks, they were separated into three groups: group 1 (6 members, no. 1 to 6) for placebo treatment, group 2 (7 members, no. 7 to 13) for treatment with 20 mg/cat, group 3 (7 members, no. 14 to 20) for treatment with 40 mg/cat. They were treated once daily in the morning, orally with the respective tablet(s) for 60 days. All animals had fasted over night and were fed 4 hours after the administration. Drinking water was offered ad libitum. Housing conditions etc. were kept constant and equally for all animals; they were kept in groups during the adaptation period and singly during the experimental period.
Relative DPP-IV activity was measured as described above.

DPP IV [5] = target: T2, DPP IV; experiment: OGTT study in normal cats after 9 mg per cat: DPP IV activity; format: in vivo; details: 9 mg per cat oral
Procedure: An OGTT like in Example 11 was performed in […] beginning 1 h after oral administration of 9 mg 1-[(3-cyano-pyridin-2-yl)methyl]-3-methyl-7-(2-butyn-1-yl)-8-[3-(R)-amino-piperidin-1-yl]-xanthine monohydrochloride or placebo (2 groups with 6 animals each; 3 male and 3 females per group).

T2 sequence (Q9N2I7 38-765 limits assumed): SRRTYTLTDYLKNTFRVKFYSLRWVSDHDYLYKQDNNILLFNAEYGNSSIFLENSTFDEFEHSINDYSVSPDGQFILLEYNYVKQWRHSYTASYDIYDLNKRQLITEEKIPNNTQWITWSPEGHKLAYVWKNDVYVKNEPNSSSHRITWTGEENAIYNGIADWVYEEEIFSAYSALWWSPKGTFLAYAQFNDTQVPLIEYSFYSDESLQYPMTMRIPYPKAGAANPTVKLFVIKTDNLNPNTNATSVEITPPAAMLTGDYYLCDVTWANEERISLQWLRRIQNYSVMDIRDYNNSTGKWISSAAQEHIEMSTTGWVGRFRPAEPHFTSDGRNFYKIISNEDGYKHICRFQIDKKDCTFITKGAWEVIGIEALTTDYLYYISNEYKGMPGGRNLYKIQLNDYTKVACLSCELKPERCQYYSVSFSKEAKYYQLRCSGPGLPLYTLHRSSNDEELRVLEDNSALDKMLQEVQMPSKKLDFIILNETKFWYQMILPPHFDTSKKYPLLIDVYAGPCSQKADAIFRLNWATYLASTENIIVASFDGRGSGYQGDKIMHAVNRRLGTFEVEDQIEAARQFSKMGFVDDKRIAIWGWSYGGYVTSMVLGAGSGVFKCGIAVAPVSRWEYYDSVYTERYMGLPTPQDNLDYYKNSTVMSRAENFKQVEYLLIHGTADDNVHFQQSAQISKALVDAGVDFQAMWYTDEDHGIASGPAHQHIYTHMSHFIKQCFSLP
T1 sequence (P14740 37-767 limits assumed): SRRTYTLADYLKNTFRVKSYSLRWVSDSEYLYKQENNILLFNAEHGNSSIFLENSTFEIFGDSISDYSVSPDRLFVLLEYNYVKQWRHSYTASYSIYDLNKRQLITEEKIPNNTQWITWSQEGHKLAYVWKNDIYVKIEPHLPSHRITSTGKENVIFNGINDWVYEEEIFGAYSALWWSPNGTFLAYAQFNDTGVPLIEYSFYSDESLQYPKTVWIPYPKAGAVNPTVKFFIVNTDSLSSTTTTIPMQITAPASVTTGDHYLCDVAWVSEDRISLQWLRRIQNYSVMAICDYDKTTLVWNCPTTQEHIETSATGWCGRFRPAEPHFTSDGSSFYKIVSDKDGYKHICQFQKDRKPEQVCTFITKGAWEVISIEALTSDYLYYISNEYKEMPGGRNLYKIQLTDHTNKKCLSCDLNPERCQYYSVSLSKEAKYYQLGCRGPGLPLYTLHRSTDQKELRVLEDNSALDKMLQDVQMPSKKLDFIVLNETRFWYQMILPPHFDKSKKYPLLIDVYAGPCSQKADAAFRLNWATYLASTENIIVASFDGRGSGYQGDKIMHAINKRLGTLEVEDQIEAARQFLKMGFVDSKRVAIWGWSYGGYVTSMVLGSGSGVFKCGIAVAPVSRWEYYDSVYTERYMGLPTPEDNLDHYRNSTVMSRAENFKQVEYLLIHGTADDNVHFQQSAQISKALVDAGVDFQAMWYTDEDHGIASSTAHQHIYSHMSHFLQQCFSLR
DPP 8, sequence (Q6V1X1 whole entry): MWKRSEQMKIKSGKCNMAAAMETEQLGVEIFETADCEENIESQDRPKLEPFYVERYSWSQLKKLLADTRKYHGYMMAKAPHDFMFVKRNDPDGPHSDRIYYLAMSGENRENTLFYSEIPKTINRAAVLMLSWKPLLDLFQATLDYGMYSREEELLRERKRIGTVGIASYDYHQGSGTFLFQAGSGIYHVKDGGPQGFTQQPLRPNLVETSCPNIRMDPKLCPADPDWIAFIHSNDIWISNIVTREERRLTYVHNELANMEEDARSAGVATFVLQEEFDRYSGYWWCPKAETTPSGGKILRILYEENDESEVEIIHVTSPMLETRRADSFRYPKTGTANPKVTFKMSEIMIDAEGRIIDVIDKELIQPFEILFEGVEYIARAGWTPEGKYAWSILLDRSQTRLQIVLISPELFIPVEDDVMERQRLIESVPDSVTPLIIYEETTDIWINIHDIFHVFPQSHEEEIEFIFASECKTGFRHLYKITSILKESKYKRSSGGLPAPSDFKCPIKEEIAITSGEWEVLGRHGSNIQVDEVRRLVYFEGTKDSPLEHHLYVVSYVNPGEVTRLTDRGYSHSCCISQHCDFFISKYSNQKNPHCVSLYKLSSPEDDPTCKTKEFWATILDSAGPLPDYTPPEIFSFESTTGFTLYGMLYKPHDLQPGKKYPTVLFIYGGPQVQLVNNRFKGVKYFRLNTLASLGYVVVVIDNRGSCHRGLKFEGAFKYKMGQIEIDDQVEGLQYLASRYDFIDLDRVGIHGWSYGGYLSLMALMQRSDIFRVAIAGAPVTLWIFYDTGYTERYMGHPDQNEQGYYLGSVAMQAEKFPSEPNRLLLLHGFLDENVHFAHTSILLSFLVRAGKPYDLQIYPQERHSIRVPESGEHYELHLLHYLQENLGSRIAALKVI
alanine-amino-peptidase, sequence (P15144 whole entry): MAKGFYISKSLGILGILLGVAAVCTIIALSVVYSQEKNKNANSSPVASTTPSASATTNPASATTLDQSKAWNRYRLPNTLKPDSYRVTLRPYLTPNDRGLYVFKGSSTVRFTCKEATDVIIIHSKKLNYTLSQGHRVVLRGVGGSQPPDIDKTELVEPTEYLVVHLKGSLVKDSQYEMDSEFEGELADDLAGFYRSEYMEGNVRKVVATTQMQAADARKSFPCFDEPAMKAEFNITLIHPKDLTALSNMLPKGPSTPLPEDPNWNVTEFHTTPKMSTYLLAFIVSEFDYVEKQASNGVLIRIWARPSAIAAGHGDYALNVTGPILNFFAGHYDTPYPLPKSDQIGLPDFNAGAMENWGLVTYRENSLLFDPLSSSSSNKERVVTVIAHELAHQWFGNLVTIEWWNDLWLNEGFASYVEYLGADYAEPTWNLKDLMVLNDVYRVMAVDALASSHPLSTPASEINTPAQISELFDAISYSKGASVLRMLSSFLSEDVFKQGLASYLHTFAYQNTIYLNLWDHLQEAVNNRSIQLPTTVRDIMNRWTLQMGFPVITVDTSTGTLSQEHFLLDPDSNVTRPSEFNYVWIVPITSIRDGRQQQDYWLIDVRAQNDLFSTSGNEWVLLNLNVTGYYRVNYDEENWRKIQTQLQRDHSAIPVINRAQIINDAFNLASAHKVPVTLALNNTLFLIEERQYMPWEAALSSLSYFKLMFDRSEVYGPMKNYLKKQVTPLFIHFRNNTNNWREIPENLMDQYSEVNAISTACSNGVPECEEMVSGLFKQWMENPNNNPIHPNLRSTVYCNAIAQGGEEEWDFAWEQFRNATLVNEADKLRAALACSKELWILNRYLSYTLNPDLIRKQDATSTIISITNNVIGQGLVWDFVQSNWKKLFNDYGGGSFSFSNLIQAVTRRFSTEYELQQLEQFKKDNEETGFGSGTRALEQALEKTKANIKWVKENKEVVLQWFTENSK

Compound: CC#CCn1c(N2CCC[C@@H](N)C2)nc2c1c(=O)n(Cc1ncccc1C#N)c(=O)n2C [1-[(3-cyano-pyridin-2-yl)methyl]-3-methyl-7-(2-butyn-1-yl)-8-[3-(R)-amino-piperidin-1-yl]-xanthine monohydrochloride]
- inhibitory effect on thrombin (thrombin): did not exert any inhibitory effect
- inhibitory effect on alanine-amino-peptidase (alanine-amino-peptidase): did not exert any inhibitory effect
- inhibitory effect on amino-peptidase P (amino-peptidase P): did not exert any inhibitory effect
- IC50 (DPP 8): 95 µM
- inhibition at 1 mg/kg (plasma DPP IV [1]; 7 hours post dose): 86%
- inhibition at 1 mg/kg (plasma DPP IV [1]; 24 hours post dose): 64%
- ED50 (plasma DPP IV [1]; 7 h post dose): 0.4 mg/kg
- ED50 (plasma DPP IV [1]; 24 h post dose): 0.6 mg/kg
- inhibition of plasma DPP IV activity (plasma DPP IV [2]): 76%
- inhibition of plasma DPP IV activity (plasma DPP IV [3]): 54%
- Relative DPP IV activity (DPP IV [4]; Group no. 2 (20 mg daily tablets), Treatment day 60 (1 h after dose)): 11%
- Relative DPP IV activity (DPP IV [4]; Group no. 2, excl. animal no. 8 (20 mg daily tablets), Treatment day 60 (predose)): 17%
- Relative DPP IV activity (DPP IV [4]; Group no. 3 (40 mg daily tablets), Treatment day 60 (1 h after dose)): 10%
- Relative DPP IV activity (DPP IV [4]; Group no. 3 (40 mg daily tablets), Treatment day 60 (predose)): 16%
- inhibition of DPP IV activity (DPP IV [5]): more than 80%
